In one series the target is T1, HiDapE (Haemophilus influenzae, UniProt P44514).
T1 construct: His6 (cleaved yes); made in house
The series is described as follows: ninhydrin-based DapE inhibition assay (N6-methyl-L,L-SDAP substrate). It is filed as biochemical. The note with it: for IC50: from three or four % inhibition points, N-Me-SDAP substrate. The text has this: To conveniently measure the inhibitory potency of test compounds against DapE, we recently developed a ninhydrin-based assay employing the unnatural but well-tolerated substrate N^6-methyl-L,L-SDAP (1b). Enzymatic cleavage of 1b affords primary amine product 3b (Figure 1), which can be quantified spectrophotometrically following treatment with ninhydrin. Importantly, this assay avoids the significant background signal that would be produced by the reaction of the primary amine in native substrate 1a with ninhydrin. […]
DapE inhibition was measured according to the method previously described. In brief, the enzymatic activity of DapE was measured in triplicate at 570 nm by the Ruhemann’s purple complex formed through the reaction of the exposed primary amine and ninhydrin. To 175 µL of 50 mM HEPES (4-(2-hydroxyethyl)-1-piperazineethanesulfonic acid) buffer at pH 7.5 with 5 µL of 1µM DapE stock solution at 30 °C, 20 µL of 10 mM monomethyl SDAP ((2S,6S)-2-(3-carboxypropanamido)-6-(methylamino)heptanedioic acid) TFA salt was added. The reaction was allowed to proceed for 10 min and quenched by heating at 100 °C for 1 min and subsequently cooling on ice for 1 min. To the cooled reaction, 2% ninhydrin reagent in 100% DMSO (final volume 300 µL) was added and subsequently heated to 80 °C for 15 min. This was quenched by placing in ice water for 2 min, and the absorbance of an 80 µL aliquot was read at 570 nm via a microplate reader. These reactions were set as 100% standard enzyme activity of DapE.

Series [1] is described as follows: solubility at assay concentration. It is filed as physicochemical. The note with it: at 200 μM; insol. = insoluble. The text has this: The compounds synthesized along with their DapE inhibitory potencies measured using the N-Me-SDAP substrate are summarized in Table 1. We kept the N-acetyl group as well as the 5-halogen moiety constant in this first series while varying the sulfonamide N-substituent. […] Several derivatives had poor solubility, limiting the ability to test inhibition at higher concentrations.

Series [2] has as its system DapE from Haemophilus influenza (HiDapE). The note with it: competitive inhibitor of HiDapE; cited from earlier work.
Another series has as its target DapE (Haemophilus influenzae, UniProt P44514). The series is described as follows: high-throughput screen of ~33,000 compounds for DapE inhibitors. It is filed as biochemical. As to conditions: read-out: % inhibition of DapE in high-throughput screen. The text has this: We were pleased that these two indoline hit structures provided mutual confirmation of one another. Furthermore, indolines are a privileged scaffold in medicinal chemistry, as there are several examples of indoline-containing drugs approved for a variety of treatments: advanced or transitional cell carcinoma of the urothelial tract (vinflunine), glaucoma and severe anticholinergic toxicity (physostigmine), and schizophrenia in adults (lumateperone), or are under investigation, as for benign prostatic hyperplasia (BPH). Furthermore, sulfonamides are pervasive in agrochemicals and in pharmaceuticals across therapeutic areas, and primary sulfonamides have recently been leveraged as versatile intermediates.

Where two headings read alike, the source gives them in different places. Bounds are passed on as bounds.

Here are results for 23 molecules from PMC7560015, “Indoline-6-Sulfonamide Inhibitors of the Bacterial Enzyme DapE” (Antibiotics, 2020).

For orientation: IC50 means the point on the concentration scale where inhibition reaches its midpoint. For orientation: melting point means the temperature of the solid-liquid transition. The term inhibition denotes the percentage by which the read-out fell short of the control.

T1 sequence (P44514 whole entry): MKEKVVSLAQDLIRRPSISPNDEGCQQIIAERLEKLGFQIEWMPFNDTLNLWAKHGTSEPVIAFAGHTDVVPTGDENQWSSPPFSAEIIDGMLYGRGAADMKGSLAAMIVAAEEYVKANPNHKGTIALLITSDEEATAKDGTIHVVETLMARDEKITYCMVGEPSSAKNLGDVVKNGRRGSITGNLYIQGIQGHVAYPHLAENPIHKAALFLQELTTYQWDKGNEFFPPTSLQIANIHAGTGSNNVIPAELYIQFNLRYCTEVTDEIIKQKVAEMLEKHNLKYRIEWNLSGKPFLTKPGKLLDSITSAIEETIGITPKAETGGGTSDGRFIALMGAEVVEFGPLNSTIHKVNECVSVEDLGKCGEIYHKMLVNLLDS
DapE, sequence (P44514 whole entry): as above

`CC(=O)N1CCc2cc(Br)c(S(=O)(=O)N3CCc4ccccc43)cc21` [9k, 1-Acetyl-5-Bromo-6-(Indolin-1-Sulfonyl) Indoline] displayed a melting point of 215 to 218 °C. Besides, the IC50 against HiDapE came to 86 µM.
In the case of `CC(=O)N1CCc2cc(Br)c(S(=O)(=O)NCc3ccccc3)cc21` [9c, 1-Acetyl-N-Benzyl-5-Bromoindoline-6-Sulfonamide], the melting point lay in the range of 205 to 208 °C. In addition, the inhibition at 200 µM at HiDapE is 56%.
Molecule `CCCN(CCC)S(=O)(=O)c1cc2c(cc1Br)CCN2C(C)=O` [9l, 1-Acetyl-5-Bromo-N,N-Dipropylindoline-6-Sulfonamide] yielded a melting point of 118 to 120 °C. Moreover, on HiDapE, the “DapE inhibitory potency in words” value is listed as “significantly less potent” and the inhibition at 20 µM was determined as 5%. Further, the “solubility in the DapE assay” value in series [1] is “insol”.
With `CC(=O)N1CCc2cc(Cl)c(S(=O)(=O)NCCC(C)C)cc21` [10a, 1-Acetyl-5-Chloro-N-Isopentylindoline-6-Sulfonamide], on HiDapE (10a relative to 4), the “fold more potent than corresponding 5-bromo derivative” value is ~ 5 ×. At HiDapE, this molecule yielded an IC50 of 54 µM.
In turn, `CC(=O)N1CCc2cc(Br)c(S(=O)(=O)N3CCCCC3)cc21` [9i, 1-Acetyl-5-Bromo-6-(Piperidin-1-Sulfonyl) Indoline] came in with a melting point of 212 to 214 °C. This molecule also returned an IC50 against HiDapE of 133 µM.
Molecule `COC(=O)CCNS(=O)(=O)c1cc2c(cc1Br)CCN2C(C)=O` [9f, Methyl 3-((1-Acetyl-5-Bromoindoline)-6-Sulfonamido)Propanoate] yielded a melting point of 190 to 193 °C. The IC50 on HiDapE came to 118 µM.
`COC(=O)[C@H](Cc1ccccc1)NS(=O)(=O)c1cc2c(cc1Br)CCN2C(C)=O` [9h, Methyl ((1-Acetyl-5-Bromoindolin-6-yl)Sulfonyl)-L-Phenylalaninate]: the inhibition at 200 µM at HiDapE worked out at 61%.
Consider `COCCN(CCOC)S(=O)(=O)c1cc2c(cc1Cl)CCN2C(C)=O` [10f, 1-Acetyl-5-Chloro-N,N-bis(2-Methoxyethyl)Indoline-6-Sulfonamide], for which the melting point is 93.2 to 94.4 °C. Also, the IC50 at HiDapE was above 200 µM.
In the case of `CC(=O)N1CCc2cc(Cl)c(S(=O)(=O)N3CCCC3)cc21` [10d, 1-(5-Chloro-6-(Pyrrolidin-1-Ylsulfonyl)Indolin-1-yl)ethan-1-One], the IC50 against HiDapE came out at 172 µM.
The molecule `COC(=O)CNS(=O)(=O)c1cc2c(cc1Br)CCN2C(C)=O` [9e, 1-Acetyl-5-Bromoindolin-6-(Sulfonyl Glycine Methyl Ester)] showed a melting point of 179 to 182 °C. In addition, on HiDapE, the “DapE inhibitory potency in words” value was “nearly inactive” and at 200 µM the inhibition was 17%.
In the case of `CC(=O)N1CCc2cc(Br)c(S(=O)(=O)N3CCCC3)cc21` [9j, 1-Acetyl-5-Bromo-6-(Pyrrolidin-1-Sulfonyl) Indoline], the melting point lay in the range of 238 to 240 °C. Moreover, the IC50 against HiDapE is 97 µM.
In the case of `CC(=O)N1CCc2cc(Cl)c(S(=O)(=O)NC3CCCCC3)cc21` [10b, 1-Acetyl-5-Chloro-N-Cyclohexylindoline-6-Sulfonamide], the melting point is 230 to 230.5 °C. Moreover, the inhibition at 200 µM against HiDapE came out at 58%.
Consider `CCN(CC)S(=O)(=O)c1cc2c(cc1Br)CCN2C(C)=O` [9n, 1-Acetyl-5-Bromo-N,N-Diethylindoline-6-Sulfonamide], for which the melting point lay within 195 to 196 °C. In addition, on HiDapE, it took 99 µM to reach half-maximal inhibition (IC50).
`CC(=O)N1CCc2cc(Cl)c(S(=O)(=O)N3CCCCC3)cc21` [10c, 1-(5-Chloro-6-(Piperidin-1-Ylsulfonyl)Indolin-1-yl)Ethan-1-One]: the melting point lay within 199.7 to 201.4 °C. At HiDapE (10c relative to 9i), the “fold more potent than corresponding 5-bromo derivative” value is ~ 3 ×. In addition, 44 µM corresponded to half-maximal inhibition against HiDapE (IC50).
With `C[C@H](CS)C(=O)N1CCC[C@H]1C(=O)O` [captopril], in series [2], the IC50 is 3.3 µM.
On to `COCCN(CCOC)S(=O)(=O)c1cc2c(cc1Br)CCN2C(C)=O` [9m, 1-Acetyl-5-Bromo-N,N-bis(2-Methoxyethyl)Indoline-6-Sulfonamide], for which the melting point lay in the range of 110 to 111 °C. In addition, at HiDapE, the “DapE inhibitory potency in words” value is on record as “significantly less potent” and the inhibition at 100 µM turned out to be 26%.
As for `CCCN(CCC)S(=O)(=O)c1cc2c(cc1Cl)CCN2C(C)=O` [10e, 1-Acetyl-5-Chloro-N,N-Dipropylindoline-6-Sulfonamide], on HiDapE, the IC50 is 88 µM.
`CC(=O)N1CCc2cc(Br)c(S(=O)(=O)NCCC(C)C)cc21` [compound 4, 1-Acetyl-5-Bromo-N-Isopentylindoline-6-Sulfonamide] registered a melting point of 190 to 191 °C. For the same molecule, the inhibition at 200 µM on HiDapE (at 200 μM, single concentration, read-out: % Inhibition) stood at 42%. Further, on HiDapE, the IC50 was above 200 µM. The inhibition at 12 µM at DapE (at 12 μM, arbitrary hit cutoff) was above 20%.
Molecule `CC(=O)N1CCc2cc(Br)c(S(=O)(=O)NC(C)(C)C)cc21` [9d, 1-Acetyl-5-Bromo-N-(Tert-Butyl)Indoline-6-Sulfonamide] registered an inhibition at 100 µM on HiDapE of 39%.
Take `CC(=O)N1CCc2cc(Br)c(S(=O)(=O)N3CC(C)CC(C)C3)cc21` (stereo not shown) [compound 5]: the inhibition at 12 µM at DapE is above 20%.
Molecule `CC(=O)N1CCc2cc(Br)c(S(=O)(=O)NC3CCCCC3)cc21` [9b, 1-Acetyl-5-Bromo-N-Cyclohexylindoline-6-Sulfonamide] registered a melting point of 226 to 228 °C. In addition, the IC50 at HiDapE is 162 µM.
Regarding `CC(=O)N1CCc2cc(Br)c(S(=O)(=O)NCC(C)C)cc21` [9a, 1-Acetyl-5-Bromo-N-Isobutylindoline-6-Sulfonamide], 200 µM produced 20% inhibition against HiDapE.
Turning to `COC(=O)[C@@H](NS(=O)(=O)c1cc2c(cc1Br)CCN2C(C)=O)C(C)C` [9g, Methyl ((1-Acetyl-5-Bromoindolin-6-yl)Sulfonyl)Valinate], the melting point was in the range of 190.9 to 191.7 °C. This molecule also returned an IC50 at HiDapE of 82 µM.
